# Measured values published in PubChem BioAssay (NCI).
#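 The compound was tested at five concentrations on cells cultured in 96-well plates, with a 48-hour exposure period. TGI marks complete inhibition of growth.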
# Assays:
# Assay in all cases: DTP human tumour cell line panel, 48 h
# 786-0 renal = system: 786-0 renal
# A549 NSCLC = system: A549 NSCLC
# ACHN renal = system: ACHN renal
# BT-549 breast = system: BT-549 breast
# CAKI-1 renal = system: CAKI-1 renal
# CCRF-CEM leukemia = system: CCRF-CEM leukemia
# COLO 205 colon = system: COLO 205 colon
# DU-145 prostate = system: DU-145 prostate
# EKVX NSCLC = system: EKVX NSCLC
# HCT-116 colon = system: HCT-116 colon
# HCT-15 colon = system: HCT-15 colon
# HL-60(TB) leukemia = system: HL-60(TB) leukemia
# HOP-62 NSCLC = system: HOP-62 NSCLC
# HOP-92 NSCLC = system: HOP-92 NSCLC
# HS 578T breast = system: HS 578T breast
# HT29 colon = system: HT29 colon
# IGROV1 ovarian = system: IGROV1 ovarian
# K-562 leukemia = system: K-562 leukemia
# KM12 colon = system: KM12 colon
# LOX IMVI melanoma = system: LOX IMVI melanoma
# M14 melanoma = system: M14 melanoma
# MALME-3M melanoma = system: MALME-3M melanoma
# MCF7 breast = system: MCF7 breast
# MDA-MB-435 = system: MDA-MB-435
# MDA-N = system: MDA-N
# MOLT-4 leukemia = system: MOLT-4 leukemia
# NCI-H226 lung = system: NCI-H226 lung
# NCI-H23 lung = system: NCI-H23 lung
# NCI-H460 lung = system: NCI-H460 lung
# NCI-H522 lung = system: NCI-H522 lung
# NCI/ADR-RES ovarian = system: NCI/ADR-RES ovarian
# OVCAR-3 ovarian = system: OVCAR-3 ovarian
# OVCAR-4 ovarian = system: OVCAR-4 ovarian
# OVCAR-5 ovarian = system: OVCAR-5 ovarian
# OVCAR-8 ovarian = system: OVCAR-8 ovarian
# PC-3 prostate = system: PC-3 prostate
# RPMI-8226 leukemia = system: RPMI-8226 leukemia
# SF-268 CNS = system: SF-268 CNS
# SF-295 CNS = system: SF-295 CNS
# SK-MEL-2 melanoma = system: SK-MEL-2 melanoma
# SK-MEL-28 melanoma = system: SK-MEL-28 melanoma
# SK-MEL-5 melanoma = system: SK-MEL-5 melanoma
# SK-OV-3 ovarian = system: SK-OV-3 ovarian
# SN12C renal = system: SN12C renal
# SNB-19 CNS = system: SNB-19 CNS
# SNB-75 CNS = system: SNB-75 CNS
# SR leukemia = system: SR leukemia
# SW-620 colon = system: SW-620 colon
# T-47D breast = system: T-47D breast
# TK-10 renal = system: TK-10 renal
# U251 CNS = system: U251 CNS
# UACC-257 melanoma = system: UACC-257 melanoma
# UACC-62 melanoma = system: UACC-62 melanoma
# UO-31 renal = system: UO-31 renal
# A498 renal = system: A498 renal
# HCC-2998 colon = system: HCC-2998 colon
# SF-539 CNS = system: SF-539 CNS
structure (smiles),measurement,setting,value
CC12CCCC(C(=O)O)(C1)[C@H](C(C)(C)C(=O)O)CC2 (some centres not stated),TGI,786-0 renal,> 100 µM
same,TGI,A549 NSCLC,> 100 µM
same,TGI,ACHN renal,> 100 µM
same,TGI,BT-549 breast,> 100 µM
same,TGI,CAKI-1 renal,> 100 µM
same,TGI,CCRF-CEM leukemia,> 100 µM
same,TGI,COLO 205 colon,> 100 µM
same,TGI,DU-145 prostate,> 100 µM
same,TGI,EKVX NSCLC,> 100 µM
same,TGI,HCT-116 colon,> 100 µM
same,TGI,HCT-15 colon,> 100 µM
same,TGI,HL-60(TB) leukemia,> 100 µM
same,TGI,HOP-62 NSCLC,> 100 µM
same,TGI,HOP-92 NSCLC,> 100 µM
same,TGI,HS 578T breast,> 100 µM
same,TGI,HT29 colon,> 100 µM
same,TGI,IGROV1 ovarian,> 100 µM
same,TGI,K-562 leukemia,> 100 µM
same,TGI,KM12 colon,> 100 µM
same,TGI,LOX IMVI melanoma,> 100 µM
same,TGI,M14 melanoma,> 100 µM
same,TGI,MALME-3M melanoma,> 100 µM
same,TGI,MCF7 breast,> 100 µM
same,TGI,MDA-MB-435,> 100 µM
same,TGI,MDA-N,> 100 µM
same,TGI,MOLT-4 leukemia,> 100 µM
same,TGI,NCI-H226 lung,> 100 µM
same,TGI,NCI-H23 lung,> 100 µM
same,TGI,NCI-H460 lung,> 100 µM
same,TGI,NCI-H522 lung,> 100 µM
same,TGI,NCI/ADR-RES ovarian,> 100 µM
same,TGI,OVCAR-3 ovarian,> 100 µM
same,TGI,OVCAR-4 ovarian,> 100 µM
same,TGI,OVCAR-5 ovarian,> 100 µM
same,TGI,OVCAR-8 ovarian,> 100 µM
same,TGI,PC-3 prostate,> 100 µM
same,TGI,RPMI-8226 leukemia,> 100 µM
same,TGI,SF-268 CNS,> 100 µM
same,TGI,SF-295 CNS,> 100 µM
same,TGI,SK-MEL-2 melanoma,> 100 µM
same,TGI,SK-MEL-28 melanoma,> 100 µM
same,TGI,SK-MEL-5 melanoma,> 100 µM
same,TGI,SK-OV-3 ovarian,> 100 µM
same,TGI,SN12C renal,> 100 µM
same,TGI,SNB-19 CNS,> 100 µM
same,TGI,SNB-75 CNS,> 100 µM
same,TGI,SR leukemia,> 100 µM
same,TGI,SW-620 colon,> 100 µM
same,TGI,T-47D breast,> 100 µM
same,TGI,TK-10 renal,> 100 µM
same,TGI,U251 CNS,> 100 µM
same,TGI,UACC-257 melanoma,> 100 µM
same,TGI,UACC-62 melanoma,> 100 µM
same,TGI,UO-31 renal,> 100 µM
NC1C/C(=N\O)c2c(Cl)sc(Cl)c21 (configuration not stated),TGI,786-0 renal,33.4 µM
same,TGI,A498 renal,59.8 µM
same,TGI,A549 NSCLC,> 100 µM
same,TGI,ACHN renal,36.4 µM
same,TGI,BT-549 breast,32.9 µM
same,TGI,CAKI-1 renal,32.2 µM
same,TGI,CCRF-CEM leukemia,> 100 µM
same,TGI,COLO 205 colon,61.4 µM
same,TGI,DU-145 prostate,29 µM
same,TGI,EKVX NSCLC,34 µM
same,TGI,HCC-2998 colon,> 100 µM
same,TGI,HCT-116 colon,20.8 µM
same,TGI,HCT-15 colon,33 µM
same,TGI,HL-60(TB) leukemia,> 100 µM
same,TGI,HOP-62 NSCLC,37 µM
same,TGI,HOP-92 NSCLC,42.9 µM
same,TGI,HS 578T breast,> 100 µM
same,TGI,HT29 colon,54.6 µM
same,TGI,IGROV1 ovarian,32 µM
same,TGI,K-562 leukemia,> 100 µM
same,TGI,KM12 colon,25.5 µM
same,TGI,LOX IMVI melanoma,15.9 µM
same,TGI,M14 melanoma,34.1 µM
same,TGI,MALME-3M melanoma,34.5 µM
same,TGI,MCF7 breast,27.5 µM
same,TGI,MDA-MB-435,29.5 µM
same,TGI,MDA-N,33.4 µM
same,TGI,MOLT-4 leukemia,> 100 µM
same,TGI,NCI-H226 lung,41.4 µM
same,TGI,NCI-H23 lung,33.7 µM
same,TGI,NCI-H460 lung,43.3 µM
same,TGI,NCI/ADR-RES ovarian,67.3 µM
same,TGI,OVCAR-3 ovarian,31.8 µM
same,TGI,OVCAR-4 ovarian,38.4 µM
same,TGI,OVCAR-5 ovarian,40 µM
same,TGI,OVCAR-8 ovarian,28.8 µM
same,TGI,PC-3 prostate,48.8 µM
same,TGI,RPMI-8226 leukemia,65.3 µM
same,TGI,SF-268 CNS,> 100 µM
same,TGI,SF-295 CNS,91.1 µM
same,TGI,SF-539 CNS,22.1 µM
same,TGI,SK-MEL-2 melanoma,36.1 µM
same,TGI,SK-MEL-28 melanoma,33.6 µM
same,TGI,SK-OV-3 ovarian,> 100 µM
same,TGI,SN12C renal,35 µM
same,TGI,SNB-19 CNS,94.3 µM
same,TGI,SNB-75 CNS,76.9 µM
same,TGI,SR leukemia,> 100 µM
same,TGI,SW-620 colon,33.4 µM
same,TGI,T-47D breast,39.7 µM
same,TGI,TK-10 renal,31.4 µM
same,TGI,UACC-257 melanoma,31.2 µM
same,TGI,UO-31 renal,34.3 µM
